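Following 48 hours of exposure in 96-well plates, responses at five concentrations were used to interpolate endpoints linearly. TGI: concentration producing complete growth inhibition.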
What was measured:
Assay in all cases: NCI-60 cell line screen, 48 h
K-562 leukemia = test system: K-562 leukemia
CCRF-CEM leukemia = test system: CCRF-CEM leukemia
DMS 114 small cell lung = test system: DMS 114 small cell lung
EKVX NSCLC = test system: EKVX NSCLC
SK-OV-3 ovarian = test system: SK-OV-3 ovarian
TK-10 renal = test system: TK-10 renal
SK-MEL-28 melanoma = test system: SK-MEL-28 melanoma
IGROV1 ovarian = test system: IGROV1 ovarian
RPMI-8226 leukemia = test system: RPMI-8226 leukemia
M14 melanoma = test system: M14 melanoma
SF-539 CNS = test system: SF-539 CNS
SNB-78 CNS = test system: SNB-78 CNS
HOP-18 NSCLC = test system: HOP-18 NSCLC
HCT-15 colon = test system: HCT-15 colon
SF-295 CNS = test system: SF-295 CNS
M19-MEL melanoma = test system: M19-MEL melanoma
UACC-62 melanoma = test system: UACC-62 melanoma
OVCAR-4 ovarian = test system: OVCAR-4 ovarian
UACC-257 melanoma = test system: UACC-257 melanoma
HOP-62 NSCLC = test system: HOP-62 NSCLC

SMILES | TGI (K-562 leukemia) | TGI (CCRF-CEM leukemia) | TGI (DMS 114 small cell lung) | TGI (EKVX NSCLC) | TGI (SK-OV-3 ovarian) | TGI (TK-10 renal) | TGI (SK-MEL-28 melanoma) | TGI (IGROV1 ovarian) | TGI (RPMI-8226 leukemia) | TGI (M14 melanoma) | TGI (SF-539 CNS) | TGI (SNB-78 CNS) | TGI (HOP-18 NSCLC) | TGI (HCT-15 colon) | TGI (SF-295 CNS) | TGI (M19-MEL melanoma) | TGI (UACC-62 melanoma) | TGI (OVCAR-4 ovarian) | TGI (UACC-257 melanoma) | TGI (HOP-62 NSCLC)
COc1ccc(/C(Cl)=C(\C=O)c2ccc(OC)c(OC)c2)cc1 | > 100 µM | > 100 µM | > 100 µM | > 100 µM | > 100 µM | > 100 µM | > 100 µM | > 100 µM | > 100 µM | > 100 µM | 58.5 µM | > 100 µM | > 100 µM | > 100 µM | > 100 µM | > 100 µM | > 100 µM | – | – | –
O=C1NP23(OCCO2)Oc2ccccc2C3(C(F)(F)F)O1 (centres undefined) | > 100 µM | > 100 µM | > 100 µM | – | > 100 µM | > 100 µM | > 100 µM | – | – | > 100 µM | > 100 µM | > 100 µM | > 100 µM | > 100 µM | > 100 µM | > 100 µM | > 100 µM | > 100 µM | > 100 µM | –
COc1cc(N=Nc2cccc(S(=O)(=O)O)c2)ccc1N=Nc1ccc(/C=C/c2ccc(-n3on3-c3ccc(/C=C/c4ccc(N=Nc5ccc(N=Nc6cccc(S(=O)(=O)O)c6)cc5OC)cc4S(=O)(=O)O)c(S(=O)(=O)O)c3)cc2S(=O)(=O)O)c(S(=O)(=O)O)c1 | > 100 µM | > 100 µM | > 100 µM | > 100 µM | > 100 µM | – | > 100 µM | > 100 µM | > 100 µM | – | > 100 µM | > 100 µM | > 100 µM | > 100 µM | > 100 µM | > 100 µM | > 100 µM | > 100 µM | > 100 µM | > 100 µM
N#CC(OC1OC(COC2OC(CO)C(O)C(O)C2O)C(O)C(O)C1O)c1ccccc1 (centres undefined) | > 225 µM | > 225 µM | > 225 µM | > 225 µM | > 225 µM | – | > 225 µM | > 225 µM | > 225 µM | – | > 225 µM | > 225 µM | > 225 µM | > 225 µM | > 225 µM | > 225 µM | > 225 µM | > 225 µM | > 225 µM | > 225 µM
CCOP(=O)(COCCn1ncc(=O)[nH]c1=O)OCC | – | > 100 µM | – | > 100 µM | – | > 100 µM | > 100 µM | > 100 µM | > 100 µM | > 100 µM | > 100 µM | – | – | > 100 µM | – | – | – | – | – | > 100 µM

From PubChem BioAssay (NCI)
